Measurements as given in patent US6949250B2, “Selective algaecides for control of cyanochloronta” (The United States of America as represented by the …, priority 2002, dated 2005).
≈ marks a conversion by molar mass, not a printed value. Read-outs that look alike come from different tables or passages of the source.

Experiments:
[1] = tested on: Oscillatoria perornata; assay: Rapid bioassay screening for selective algicides (LOEC, LCIC); format: cell-based; conditions: for MIC: read-out: LCIC (lowest-complete-inhibition concentration), Oscillatoria perornata; for minimal effective concentration: read-out: LOEC (lowest-observed-effect concentration), Oscillatoria perornata
Source text: (§1) These were screened in the laboratory by the method of Schrader et al. (K. K. Schrader, M. Q. de Regt, C. S. Tucker and S. O. Duke, A rapid bioassay for selective algicides. Weed Technol. (1997), vol. 11, pp. 767-774) for algicidal activity.
(§2) The anthraquinone derivatives were screened for selective toxicity towards Oscillatoria perornata, previously isolated from a Mississippi catfish pond, using the method of Schrader et al. (1997). The green alga Selenastrum capricornutum (obtained from the United States Environmental Protection Agency, Corvallis, Oreg.) was used as the representative green algal species in the bioassay since it is a common species found in southeastern United States catfish ponds. Absorbance readings were graphed, and graphs were used to determine the LOEC (lowest-observed-effect concentration) and the LCIC (lowest-complete-inhibition concentration) for each anthraquinone analog. In addition, a 96-hour 50% inhibition concentration (IC50) was determined for DNA1-19-1 and DNA2-59-1 by using the method described by Schrader et al. (1998b). Stock solutions of DNA1-19-1 and DNA2-59-1 were prepared so that final concentrations screened for 96-hour IC50 determinations were as follows: 1) 0, 0.01, 0.033, 0.1, 0.333, 1.0, 3.3, and 10.0 μM DNA1-19-1 for both O. perornata and S. capricornutum; 2) 0, 0.003, 0.01, 0.033, 0.1, 0.333, 1.0, and 3.333 μM DNA2-59-1 for O. perornata; and 3) 0, 0.1, 0.333, 1.0, 3.333, 10.0, 33.333, and 100.0 μM DNA2-59-1 for S. capricornutum. Estimation of the IC50 was determined by plotting 96-hour absorbance readings against logarithmic dilution values of the anthraquinone analogs. The screening results of the anthraquinone derivatives and commercially available analogs of anthraquinone are presented in Tables 1 and 2, respectively. The results in Table 1 reveal that DNA1-19-1 and DNA2-59-1 are the most promising analogs since these two compounds had the lowest LOEC and LCIC values for O. perornata (10 nM and 100 nM, respectively). Based upon IC50 results in Table 3, DNA2-59-1 appears to be more toxic and selective towards O. perornata than DNA1-19-1.
as §2, with “(A rapid bioassay for selective algicides. Weed Technol. (1997), vol. 11, pp. 767-774).” for “(1997).”, “(K. K. Schradar, M. Q. de Regt, P. D. Tidwell, C. S. Tucker and S. O. Duke, Selective growth inhibition of the musty-odor producing cyanobacterium Oscillatoria cf. chalybea by natural compounds. Bull. Environ. Contam. Toxicol. (1998a), vol.60, pp. 651-658).” for “(1998b).”, “The screening results of the anthraquinone derivatives and commercially available analogs of anthraquinone are presented in Tables 1 and 2, respectively. The results in Table 1 reveal that DNA1-19-1 and DNA2-59-1 are the most promising analogs since these two compounds had the lowest LOEC and LCIC values for O. perornata (10 nM and 100 nM, respectively). Based upon IC50 results in Table 3, DNA2-59-1 appears to be more toxic and selective towards O. perornata than DNA1-19-1.” left out

[2] = tested on: Selenastrum capricornutum; assay: as above; format: cell-based; conditions: for MIC / minimal effective concentration: Selenastrum capricornutum; for MIC: read-out: LCIC (lowest-complete-inhibition concentration), Selenastrum capricornutum; for minimal effective concentration: read-out: LOEC (lowest-observed-effect concentration), Selenastrum capricornutum
Source text: as §1, §2
as §2, with “(A rapid bioassay for selective algicides. Weed Technol. (1997), vol. 11, pp. 767-774).” for “(1997).”, “(K. K. Schradar, M. Q. de Regt, P. D. Tidwell, C. S. Tucker and S. O. Duke, Selective growth inhibition of the musty-odor producing cyanobacterium Oscillatoria cf. chalybea by natural compounds. Bull. Environ. Contam. Toxicol. (1998a), vol.60, pp. 651-658).” for “(1998b).”, “The screening results of the anthraquinone derivatives and commercially available analogs of anthraquinone are presented in Tables 1 and 2, respectively. The results in Table 1 reveal that DNA1-19-1 and DNA2-59-1 are the most promising analogs since these two compounds had the lowest LOEC and LCIC values for O. perornata (10 nM and 100 nM, respectively). Based upon IC50 results in Table 3, DNA2-59-1 appears to be more toxic and selective towards O. perornata than DNA1-19-1.” left out

[3] = Planktothrix perornata, rapid screening

Row | Structure (SMILES) | LCIC (lowest-complete-inhibition concentration), Oscillatoria perornata ([1]; rapid screening) | LOEC (lowest-observed-effect concentration), Oscillatoria perornata ([1]; rapid screening) | LCIC (lowest-complete-inhibition concentration), Selenastrum capricornutum ([2]; rapid screening) | LOEC (lowest-observed-effect concentration), Selenastrum capricornutum ([2]; rapid screening) | MIC [1, 3] [µM] | MIC ([2]; rapid screening) [µM] | minimal effective concentration [1, 3] [µM] | minimal effective concentration ([2]; rapid screening) [µM] | other results
1 | CC(C)N(Cc1ccc2c(c1)C(=O)c1ccccc1C2=O)C(C)C.O=P(O)(O)O [DNA2-49-1, 2-[Methylamino-N,N-(di-1′-methylethyl)]-9,10-anthraquinone monophosphate] | 1,000 nM | 1,000 nM | 1e+06 nM | 100,000 nM | – | – | – | – | –
2 | CCN(CC)CCCNC(C)c1ccc2c(c1)C(=O)c1ccccc1C2=O (stereo not drawn) [DNA2-87-1, 2-[1′-Amino-N-(propyl-3″-N,N-diethylamino)ethyl]-9,10-anthraquinone] | 100,000 nM | 1,000 nM | 100,000 nM | 100,000 nM | – | – | – | – | –
3 | O=C1c2ccccc2C(=O)c2c(O)ccc(O)c21 [1,4-dihydroxyanthraquinone, reference compound] | – | – | – | – | > 100 | > 100 | – | – | –
4 | CN(C)CCCNc1cccc2c1C(=O)c1ccccc1C2=O.O=P(O)(O)O [DNA2-93-1, 1-amino-N-(propyl-3′-N,N-dimethylamino)-9,10-anthraquinone phosphate] | 1,000 nM | 1,000 nM | 100,000 nM | 100,000 nM | – | – | – | – | –
5 | COCCOCCOCCOCCOc1ccc2c(c1)C(=O)c1ccccc1C2=O [DNA3-55-1, 2-[2-[2-[2-(2-Methoxyethoxy)ethoxy]ethoxy]ethoxy]-9,10-anthraquinone] | – | – | – | – | 100 (≈ 41.4 µg/mL) | > 100 | 10 | > 100 | –
6 | O=C(O)c1ccc2c(c1)C(=O)c1ccccc1C2=O [anthraquinone-2-carboxylic acid, reference compound] | – | – | – | – | – | – | – | – | MIC ([1]; Planktothrix perornata): > 1000 µM; MIC [2]: > 1000 µM
7 | CCNCc1ccc2c(c1)C(=O)c1ccccc1C2=O.O=P(O)(O)O [DNA3-17-1, 2-[Methylamino-N-(ethyl)]-9,10-anthraquinone monophosphate] | 1,000 nM | 1,000 nM | 10,000 nM | 10,000 nM | – | – | – | – | –
8 | COCCOCCOCCOc1ccc2c(c1)C(=O)c1ccccc1C2=O [DNA3-9-1, 2-[2-[2-(2-methoxyethoxy)ethoxy]ethoxy]-9,10-anthraquinone] | – | – | – | – | 10 (≈ 3.7 µg/mL) | > 100 | 10 | > 100 | –
9 | COCCOCCOCCOc1cccc2c1C(=O)c1ccccc1C2=O [DNA3-11-1, 1-[2-[2-(2-Methoxyethoxy)ethoxy]ethoxy]-9,10-anthraquinone] | – | – | – | – | 10 (≈ 3.7 µg/mL) | > 100 | 10 | > 100 | –
10 | O=C1c2ccccc2C(=O)c2cc(OCCOCCOCCOCCOCCO)ccc21 [DNA3-51-1, 2-[2-[2-[2-[2-(2-Hydroxyethoxy)ethoxy]ethoxy]ethoxy]ethoxy]-9,10-anthraquinone] | – | – | – | – | 100 (≈ 44.4 µg/mL) | > 100 | 0.1 | > 100 | –
11 | COCCOCCOc1ccc2c(c1)C(=O)c1ccccc1C2=O [DNA3-5-1, 2-[2-(2-Methoxyethoxy)ethoxy]-9,10-anthraquinone] | – | – | – | – | 10 (≈ 3.26 µg/mL) | > 100 | 0.1 | > 100 | –
12 | O=C1c2ccccc2C(=O)c2cc(COCCOCCOCCOCCO)ccc21 [DNA3-59-1, 2-Methylene-[2-[2-[2-(2-hydroxyethoxy)ethoxy]ethoxy]ethoxy]-9,10-anthraquinone] | 100,000 nM | – | >100,000 nM | >100,000 nM | – | – | – | – | minimal effective concentration ([1]; rapid screening): 0.1 µM
13 | COCCOc1ccc2c(c1)C(=O)c1ccccc1C2=O [DNA2-97-2, 2-(2-Methoxyethoxy)-9,10-anthraquinone] | – | – | – | – | 10 (≈ 2.82 µg/mL) | > 100 | 10 | > 100 | –
14 | CC(C)NC(C)c1ccc2c(c1)C(=O)c1ccccc1C2=O (stereo not drawn) [DNA2-89-1, 2-[1′-Amino-N-(1′-methylethyl)ethyl]-9,10-anthraquinone 9,10-anthraquinone] | 1,000 nM | 1,000 nM | 100,000 nM | 100,000 nM | – | – | – | – | –
15 | CC(C)(C)NCc1ccc2c(c1)C(=O)c1ccccc1C2=O.O=P(O)(O)O [DNA3-33-1, 2-[Methylamino-N-(1′1′-dimethylethyl)]-9,10-anthraquinone monophosphate] | 1,000 nM | 1,000 nM | 10,000 nM | 1,000 nM | – | – | – | – | –
16 | COCCOc1cccc2c1C(=O)c1ccccc1C2=O [DNA3-13-1, 1-(2-Methoxyethoxy)-9,10-anthraquinone] | – | – | – | – | 10 (≈ 2.82 µg/mL) | > 100 | 10 | 0.01 | –
17 | O=C1c2ccccc2C(=O)c2cc(COCCOCCOCCO)ccc21 [DNA3-57-1, 2-Methylene-[2-[2-(2-hydroxyethoxy)ethoxy]ethoxy]-9,10-anthraquinone] | 10,000 nM | – | >100,000 nM | >100,000 nM | – | – | – | – | minimal effective concentration ([1]; rapid screening): 0.1 µM
18 | Nc1ccc2c(c1)C(=O)c1ccccc1C2=O [2-aminoanthraquinone, reference compound] | – | – | – | – | > 100 | > 100 | – | – | –
19 | CCN(CC)CCCNc1cccc2c1C(=O)c1ccccc1C2=O.O=P(O)(O)O [DNA2-91-1, 1-amino-N-(propyl-3′-N,N-diethylamino)-9,10-anthraquinone phosphate] | 10,000 nM | 10,000 nM | 100,000 nM | 100,000 nM | – | – | – | – | –
20 | CNc1cccc2c1C(=O)c1ccccc1C2=O [1-(methylamino) anthraquinone, reference compound] | – | – | – | – | – | – | – | – | MIC ([1]; Planktothrix perornata): 100 µM (≈ 23.7 µg/mL); MIC [2]: > 100 µM
